For this test, the target named is Ubiquitin carboxyl-terminal hydrolase 9X (Homo sapiens, UniProt Q93008). The test can be described thus: Inhibition of USP9X (unknown origin) using Ubiquitin-Rhoadmine 110 as substrate preincubated for 30 mins followed by substrate addition and measured after 11 mins by fluorescence assay. It counts as single protein.

Structures are written as SMILES. Where only a bound is given, the exact number is not on record here.

Sequence of Ubiquitin carboxyl-terminal hydrolase 9X (Q93008 whole entry): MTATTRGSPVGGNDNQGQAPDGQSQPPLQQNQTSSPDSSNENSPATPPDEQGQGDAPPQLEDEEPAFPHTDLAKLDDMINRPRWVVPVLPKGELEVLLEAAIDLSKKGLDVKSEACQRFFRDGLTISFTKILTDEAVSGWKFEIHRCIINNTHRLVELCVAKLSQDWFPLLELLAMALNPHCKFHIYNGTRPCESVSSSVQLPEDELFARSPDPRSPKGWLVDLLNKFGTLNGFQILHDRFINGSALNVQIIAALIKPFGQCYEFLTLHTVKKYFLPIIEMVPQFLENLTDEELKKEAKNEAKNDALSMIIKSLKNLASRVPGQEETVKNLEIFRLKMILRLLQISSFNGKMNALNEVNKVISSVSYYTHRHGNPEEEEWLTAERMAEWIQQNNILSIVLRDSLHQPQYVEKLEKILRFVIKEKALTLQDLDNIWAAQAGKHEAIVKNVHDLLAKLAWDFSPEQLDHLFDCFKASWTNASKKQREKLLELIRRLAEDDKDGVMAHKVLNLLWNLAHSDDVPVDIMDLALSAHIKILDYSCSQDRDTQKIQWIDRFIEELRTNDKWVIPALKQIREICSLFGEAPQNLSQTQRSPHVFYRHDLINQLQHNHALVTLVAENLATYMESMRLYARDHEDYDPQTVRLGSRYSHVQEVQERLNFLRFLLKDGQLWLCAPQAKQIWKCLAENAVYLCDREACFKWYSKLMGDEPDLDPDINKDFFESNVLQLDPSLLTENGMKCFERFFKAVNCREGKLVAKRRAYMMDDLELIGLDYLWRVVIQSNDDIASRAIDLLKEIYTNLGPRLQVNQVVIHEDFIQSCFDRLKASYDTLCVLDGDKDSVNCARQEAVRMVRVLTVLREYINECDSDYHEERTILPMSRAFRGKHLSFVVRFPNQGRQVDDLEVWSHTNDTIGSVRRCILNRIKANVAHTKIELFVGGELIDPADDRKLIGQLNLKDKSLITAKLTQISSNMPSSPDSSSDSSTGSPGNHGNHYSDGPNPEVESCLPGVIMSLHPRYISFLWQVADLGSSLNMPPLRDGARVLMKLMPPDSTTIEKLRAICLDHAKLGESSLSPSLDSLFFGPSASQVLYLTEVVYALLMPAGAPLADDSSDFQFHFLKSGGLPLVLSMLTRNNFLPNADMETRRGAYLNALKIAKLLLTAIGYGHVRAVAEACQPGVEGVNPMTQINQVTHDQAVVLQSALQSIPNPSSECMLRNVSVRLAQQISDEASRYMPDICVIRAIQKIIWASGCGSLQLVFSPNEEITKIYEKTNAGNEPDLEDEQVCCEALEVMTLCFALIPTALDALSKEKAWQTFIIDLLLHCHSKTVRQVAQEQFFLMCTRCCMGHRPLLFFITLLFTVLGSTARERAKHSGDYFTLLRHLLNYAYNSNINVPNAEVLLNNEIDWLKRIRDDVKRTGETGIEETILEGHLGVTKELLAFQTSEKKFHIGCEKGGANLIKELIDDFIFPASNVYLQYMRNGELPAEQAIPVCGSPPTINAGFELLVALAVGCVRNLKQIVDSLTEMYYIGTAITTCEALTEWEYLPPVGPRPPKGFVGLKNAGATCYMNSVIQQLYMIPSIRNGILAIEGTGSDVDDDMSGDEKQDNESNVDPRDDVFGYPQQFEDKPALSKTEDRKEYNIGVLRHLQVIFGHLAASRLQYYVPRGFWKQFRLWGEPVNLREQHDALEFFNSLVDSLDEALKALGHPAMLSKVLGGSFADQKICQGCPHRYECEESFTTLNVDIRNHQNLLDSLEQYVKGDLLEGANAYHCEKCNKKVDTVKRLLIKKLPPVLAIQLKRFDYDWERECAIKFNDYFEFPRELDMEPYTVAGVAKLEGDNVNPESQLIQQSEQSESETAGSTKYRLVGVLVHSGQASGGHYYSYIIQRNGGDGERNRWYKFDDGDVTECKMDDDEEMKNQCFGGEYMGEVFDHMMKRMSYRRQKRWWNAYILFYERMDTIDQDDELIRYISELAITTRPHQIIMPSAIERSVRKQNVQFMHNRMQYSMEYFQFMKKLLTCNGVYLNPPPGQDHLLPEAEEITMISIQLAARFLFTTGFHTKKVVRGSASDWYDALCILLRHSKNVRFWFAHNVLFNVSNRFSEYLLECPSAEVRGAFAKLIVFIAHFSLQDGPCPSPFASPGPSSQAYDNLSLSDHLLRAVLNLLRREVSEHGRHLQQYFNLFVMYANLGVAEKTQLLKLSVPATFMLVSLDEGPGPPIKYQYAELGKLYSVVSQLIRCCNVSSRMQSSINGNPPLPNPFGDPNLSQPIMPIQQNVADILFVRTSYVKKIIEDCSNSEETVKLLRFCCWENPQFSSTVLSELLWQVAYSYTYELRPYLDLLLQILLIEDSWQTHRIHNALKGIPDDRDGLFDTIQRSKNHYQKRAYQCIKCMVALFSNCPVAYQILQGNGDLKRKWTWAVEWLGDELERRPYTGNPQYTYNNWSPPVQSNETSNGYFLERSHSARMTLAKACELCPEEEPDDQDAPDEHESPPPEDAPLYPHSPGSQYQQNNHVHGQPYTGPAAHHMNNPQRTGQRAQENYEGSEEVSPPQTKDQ

The term IC50 denotes the concentration that inhibits the measured activity by half. A higher IC50 goes with weaker potency. As for `O=S(=O)(c1ccccc1)c1cc2c(cn1)CN(S(=O)(=O)c1ccc(-c3ncco3)cc1)C2`, the IC50 was more than 25 µM. With `C[C@@H](c1ccccc1)N1Cc2cc(S(=O)(=O)c3ccc4c(c3)OCCO4)ccc2C1=O`, the IC50 is more than 25 µM.

Consider `O=C([C@@H](O)c1ccccc1)N1CCc2c(cnn2S(=O)(=O)c2ccc3c(c2)OCCO3)C1`, for which the IC50 is more than 25 µM. As to `O=C(c1cccc(Cl)c1)c1cc2c(cn1)CN(S(=O)(=O)c1ccc3c(c1)OCCO3)C2`, the IC50 is more than 25 µM.

For the compound `O=S(=O)(C1CCN(c2nccs2)CC1)N1Cc2cnc(C(O)c3ccccc3)cc2C1` (centres undefined), the IC50 was more than 25 µM. As for `O=S(=O)(C1CCN(c2ncco2)CC1)N1Cc2cnc(C(O)c3ccccc3)cc2C1` (centres undefined), the IC50 is more than 25 µM. In turn, `OC(c1ccccc1)c1cc2c(cn1)CN(Cc1ccc3c(c1)OCCO3)C2` (centres undefined) had an IC50 of more than 25 µM.

On to `O=S(=O)(c1ccc(-n2ccnc2)cc1)N1Cc2cnc(C(O)c3ccccc3)cc2C1` (centres undefined), for which the IC50 is more than 25 µM. In turn, `COc1ccc(S(=O)(=O)N2CCc3nn(C(=O)[C@@H](O)c4ccccc4)cc3C2)cc1O` yielded an IC50 of more than 25 µM.

The values above are taken from ChEMBL document CHEMBL5050849 (2020).
